Results: ChEMBL document CHEMBL1138076, “Synthesis and biological evaluation of lisofylline (LSF) analogs as a potential treatment for Type 1 diabetes” (Bioorg Med Chem Lett, 2006)
Calls of active or inactive are those of the source. No cut-off for these calls is given here.

Assays:
INS1 = assay: Secretion of insulin in INS1 cells at 20 uM; type: functional, cell-based; details: Rattus norvegicus
Pancreatic beta cell = assay: Protection of cytokine-induced death of pancreatic beta cells at 0.1 uM; type: functional, cell-based; details: Mus musculus
[1] = Half life in human liver; type: ADME, organism-based
[2] = Stability in human liver microsomes at […] at pH 7.4; type: ADME, Microsome; details: read-out: Stability

| SMILES | Activity (INS1) | Activity (Pancreatic beta cell) | half-life [1] | remaining [2] |
| --- | --- | --- | --- | --- |
| C[C@@H](O)CCCCn1c(=O)c2c(ncn2C)n(C)c1=O [LISOFYLLINE] | Active | Active | < 3 min | – |
| CC(C)NCC(O)COc1cccc2ccccc12 (configuration not stated) [PROPRANOLOL] | – | – | – | 34% |
| C[C@]12CC[C@H]3[C@@H](CCC4=CC(=O)CC[C@@]43C)[C@@H]1CC[C@@H]2O [TESTOSTERONE] | – | – | – | 9% |
| C[C@@H](O)CCCCOc1nn(CCCC[C@@H](C)O)c(=O)c2ccccc12 | Active | Active | – | 75% |
| Cc1cnc2n(C)c(=O)n(CCCC[C@@H](C)O)c(=O)n12 | Active | Active | – | 82% |
| CC(=O)CC(c1ccccc1)c1c(O)c2ccccc2oc1=O (configuration not stated) [WARFARIN] | – | – | – | 105% |
